Measured values: patent US20200131177A1, “PESTICIDALLY ACTIVE HETEROCYCLIC DERIVATIVES WITH SULFUR CONTAINING SUBSTITUENTS” (SYNGENTA PARTICIPATIONS AG, priority 2017, published 2020)

Columns and labels:
Assay type in all cases: in vivo
[1] = tested on: Myzus persicae (Green Peach Aphid); experiment: Example B6: Myzus persicae, roots of pea seedlings in test solution; settings: 144 h, test rate of 24 ppm, aphid population of mixed ages, 6 days after placing seedlings into test solutions
Procedure: Example B6: Myzus persicae (Green Peach Aphid)
Roots of pea seedlings infested with an aphid population of mixed ages were placed directly into aqueous test solutions prepared from 10′000 DMSO stock solutions. The samples were assessed for mortality 6 days after placing seedlings into test solutions.

[2] = tested on: Myzus persicae (Green Peach Aphid); experiment: Example B5: Myzus persicae, sprayed sunflower leaf discs; settings: foliar, 144 h, application rate of 200 ppm, aphid population of mixed ages, 6 days after infestation
Procedure: Example B5: Myzus persicae (Green Peach Aphid)
Sunflower leaf discs were placed onto agar in a 24-well microtiter plate and sprayed with aqueous test solutions prepared from 10′000 ppm DMSO stock solutions. After drying, the leaf discs were infested with an aphid population of mixed ages. The samples were assessed for mortality 6 days after infestation.

[3] = tested on: Euschistus heros (Neotropical Brown Stink Bug); experiment: Example B9: Euschistus heros, sprayed soybean leaves; settings: 120 h, application rate of 200 ppm, N2 nymphs, 5 days after infestation, read-out: effect in at least one of the two categories (mortality or growth inhibition)
Procedure: Example B9: Euschistus heros (Neotropical Brown Stink Bug)
Soybean leaves on agar in 24-well microtiter plates were sprayed with aqueous test solutions prepared from 10′000 ppm DMSO stock solutions. After drying the leaves were infested with N2 nymphs. The samples were assessed for mortality and growth inhibition in comparison to untreated samples 5 days after infestation.

[4] = tested on: Diabrotica balteata (Corn Root Worm); experiment: Example B4: Diabrotica balteata, sprayed maize sprouts; settings: 96 h, application rate of 200 ppm, L2 larvae, 4 days after infestation, read-out: effect in at least one of the two categories (mortality or growth inhibition)
Procedure: Example B4: Diabrotica balteata (Corn Root Worm)
Maize sprouts placed onto an agar layer in 24-well microtiter plates were treated with aqueous test solutions prepared from 10′000 ppm DMSO stock solutions by spraying. After drying, the plates were infested with L2 larvae (6 to 10 per well). The samples were assessed for mortality and growth inhibition in comparison to untreated samples 4 days after infestation.

[5] = tested on: Bemisia tabaci (Cotton White Fly); experiment: Example B8: Bemisia tabaci, sprayed cotton leaf discs; settings: foliar, 144 h, application rate of 200 ppm, adult white flies, 6 days after incubation
Procedure: Example B8: Bemisia tabaci (Cotton White Fly)
Cotton leaf discs were placed on agar in 24-well microtiter plates and sprayed with aqueous test solutions prepared from 10′000 ppm DMSO stock solutions. After drying the leaf discs were infested with adult white flies. The samples were checked for mortality 6 days after incubation.

[6] = tested on: Tetranychus urticae (Two-Spotted Spider Mite); experiment: Example B10: Tetranychus urticae, sprayed bean leaf discs; settings: foliar, 192 h
Procedure: Example B10: Tetranychus urticae (Two-Spotted Spider Mite)
Bean leaf discs on agar in 24-well microtiter plates were sprayed with aqueous test solutions prepared from 10′000 ppm DMSO stock solutions. After drying the leaf discs were infested with a mite population of mixed ages. The samples were assessed for mortality on mixed population (mobile stages) 8 days after infestation.

[7] = tested on: Spodoptera littoralis (Egyptian Cotton Leaf Worm); experiment: Example B1: Spodoptera littoralis, sprayed cotton leaf discs; settings: foliar, 72 h, application rate of 200 ppm, L1 larvae, 3 days after infestation, read-out: control (mortality, anti-feeding effect or growth inhibition)
Procedure: Example B1: Spodoptera littoralis (Egyptian Cotton Leaf Worm)
Cotton leaf discs were placed onto agar in 24-well microtiter plates and sprayed with aqueous test solutions prepared from 10′000 ppm DMSO stock solutions. After drying the leaf discs were infested with five L1 larvae. The samples were assessed for mortality, anti-feeding effect, and growth inhibition in comparison to untreated samples 3 days after infestation. Control of Spodoptera littoralis by a test sample is given when at least one of the categories mortality, anti-feedant effect, and growth inhibition is higher than the untreated sample.

[8] = tested on: Plutella xylostella (Diamond Back Moth); experiment: Example B3: Plutella xylostella, treated artificial diet; settings: 120 h, application rate of 200 ppm, L2 larvae, 5 days after infestation, read-out: effect in at least one of the two categories (mortality or growth inhibition)
Procedure: Example B3: Plutella xylostella (Diamond Back Moth)
24-well microtiter plates with artificial diet were treated with aqueous test solutions prepared from 10′000 ppm DMSO stock solutions by pipetting. After drying, the plates were infested with L2 larvae (10 to 15 per well). The samples were assessed for mortality and growth inhibition in comparison to untreated samples 5 days after infestation.

[9] = tested on: Frankliniella occidentalis (Western Flower Thrips); experiment: Example B12: Frankliniella occidentalis, sprayed sunflower leaf discs; settings: foliar, 168 h, application rate of 200 ppm, population of mixed ages, 7 days after infestation
Procedure: Example B12: Frankliniella occidentalis (Western Flower Thrips)
Sunflower leaf discs were placed on agar in 24-well microtiter plates and sprayed with aqueous test solutions prepared from […] stock solutions. After drying the leaf discs were infested with a Frankliniella population of mixed ages. The samples were assessed for mortality 7 days after infestation.

CCS(=O)(=O)c1ccc(-n2cncn2)nc1-c1nc2cc([S+]([O-])C(F)F)ncc2n1C (stereo not drawn) [Compound P8, 6-(difluoromethylsulfinyl)-2-[3-ethylsulfonyl-6-(1,2,4-triazol-1-yl)-2-pyridyl]-3-methyl-imidazo[4,5-c]pyridine]
≥ 80%: mortality at 24 ppm [1] | mortality at 200 ppm [2] | percent effect (mortality or growth inhibition) at 200 ppm [3] | percent effect (mortality or growth inhibition) at 200 ppm [4] | mortality at 200 ppm [5]

CCS(=O)(=O)c1cc(OC(C)C)cnc1-c1nc2cc([S+]([O-])C(F)F)ncc2n1C (stereo not drawn) [Compound P11, 6-(difluoromethylsulfinyl)-2-(3-ethylsulfonyl-5-isopropoxy-2-pyridyl)-3-methyl-imidazo[4,5-c]pyridine]
≥ 80%: mortality at 200 ppm [6] | mortality at 24 ppm [1] | mortality at 200 ppm [2] | percent effect (mortality or growth inhibition) at 200 ppm [3] | percent control (mortality, anti-feedant effect or growth inhibition) at 200 ppm [7] | percent effect (mortality or growth inhibition) at 200 ppm [8]

CCS(=O)(=O)c1cc(C(F)(F)F)cnc1-c1nc2cc([S+]([O-])C(F)F)ncc2n1C (stereo not drawn) [Compound P2, 6-(difluoromethylsulfinyl)-2-[3-ethylsulfonyl-5-(trifluoromethyl)-2-pyridyl]-3-methyl-imidazo[4,5-c]pyridine]
≥ 80%: mortality at 24 ppm [1] | mortality at 200 ppm [2] | percent effect (mortality or growth inhibition) at 200 ppm [3] | percent control (mortality, anti-feedant effect or growth inhibition) at 200 ppm [7] | percent effect (mortality or growth inhibition) at 200 ppm [4] | percent effect (mortality or growth inhibition) at 200 ppm [8] | mortality at 200 ppm [5]

CCS(=O)(=O)c1ccc(-n2cncn2)nc1-c1nc2cc(S(=O)(=O)C(F)F)ncc2n1C [Compound P7, 6-(difluoromethylsulfonyl)-2-[3-ethylsulfonyl-6-(1,2,4-triazol-1-yl)-2-pyridyl]-3-methyl-imidazo[4,5-c]pyridine]
≥ 80%: mortality at 24 ppm [1] | mortality at 200 ppm [2] | percent effect (mortality or growth inhibition) at 200 ppm [3] | percent effect (mortality or growth inhibition) at 200 ppm [4]

CCS(=O)(=O)c1cc(OC(C)C)cnc1-c1nc2cc(SC(F)F)ncc2n1C [Compound P12, 6-(difluoromethylsulfanyl)-2-(3-ethylsulfonyl-5-isopropoxy-2-pyridyl)-3-methyl-imidazo[4,5-c]pyridine]
≥ 80%: mortality at 24 ppm [1] | mortality at 200 ppm [2] | percent effect (mortality or growth inhibition) at 200 ppm [3] | percent control (mortality, anti-feedant effect or growth inhibition) at 200 ppm [7] | percent effect (mortality or growth inhibition) at 200 ppm [4] | percent effect (mortality or growth inhibition) at 200 ppm [8]

CCS(=O)(=O)c1cc(C(F)(F)F)cnc1-c1nc2cc(SC(F)F)ncc2n1C [Compound P3, 6-(difluoromethylsulfanyl)-2-[3-ethylsulfonyl-5-(trifluoromethyl)-2-pyridyl]-3-methyl-imidazo[4,5-c]pyridine]
≥ 80%: mortality at 24 ppm [1] | mortality at 200 ppm [2] | percent effect (mortality or growth inhibition) at 200 ppm [3] | mortality at 200 ppm [9] | percent control (mortality, anti-feedant effect or growth inhibition) at 200 ppm [7] | percent effect (mortality or growth inhibition) at 200 ppm [4] | percent effect (mortality or growth inhibition) at 200 ppm [8] | mortality at 200 ppm [5]

CCS(=O)(=O)c1cccnc1-c1nc2cc(SC(F)F)ncc2n1C [Compound P6, 6-(difluoromethylsulfanyl)-2-(3-ethylsulfonyl-2-pyridyl)-3-methyl-imidazo[4,5-c]pyridine]
≥ 80%: mortality at 24 ppm [1] | mortality at 200 ppm [2] | percent effect (mortality or growth inhibition) at 200 ppm [3] | percent effect (mortality or growth inhibition) at 200 ppm [4]

CCS(=O)(=O)c1cc(C(F)(F)F)cnc1-c1nc2cc(S(=O)(=O)C(F)F)ncc2n1C [Compound P1, 6-(difluoromethylsulfonyl)-2-[3-ethylsulfonyl-5-(trifluoromethyl)-2-pyridyl]-3-methyl-imidazo[4,5-c]pyridine]
≥ 80%: mortality at 24 ppm [1] | mortality at 200 ppm [2] | percent effect (mortality or growth inhibition) at 200 ppm [3] | percent control (mortality, anti-feedant effect or growth inhibition) at 200 ppm [7] | percent effect (mortality or growth inhibition) at 200 ppm [4] | percent effect (mortality or growth inhibition) at 200 ppm [8] | mortality at 200 ppm [5]

CCS(=O)(=O)c1cc(OC(C)C)cnc1-c1nc2cc(S(=O)(=O)C(F)F)ncc2n1C [Compound P10, 6-(difluoromethylsulfonyl)-2-(3-ethylsulfonyl-5-isopropoxy-2-pyridyl)-3-methyl-imidazo[4,5-c]pyridine]
≥ 80%: mortality at 200 ppm [6] | mortality at 24 ppm [1] | mortality at 200 ppm [2] | percent effect (mortality or growth inhibition) at 200 ppm [3] | percent control (mortality, anti-feedant effect or growth inhibition) at 200 ppm [7] | percent effect (mortality or growth inhibition) at 200 ppm [8]

CCS(=O)(=O)c1cccnc1-c1nc2cc([S+]([O-])C(F)F)ncc2n1C (stereo not drawn) [Compound P4]
≥ 80%: mortality at 24 ppm [1] | mortality at 200 ppm [2] | percent effect (mortality or growth inhibition) at 200 ppm [3] | percent effect (mortality or growth inhibition) at 200 ppm [4]

CCS(=O)(=O)c1ccc(-n2cncn2)nc1-c1nc2cc(SC(F)F)ncc2n1C [Compound P9, 6-(difluoromethylsulfanyl)-2-[3-ethylsulfonyl-6-(1,2,4-triazol-1-yl)-2-pyridyl]-3-methyl-imidazo[4,5-c]pyridine]
≥ 80%: mortality at 24 ppm [1] | mortality at 200 ppm [2] | percent effect (mortality or growth inhibition) at 200 ppm [3] | percent control (mortality, anti-feedant effect or growth inhibition) at 200 ppm [7] | percent effect (mortality or growth inhibition) at 200 ppm [4] | mortality at 200 ppm [5]
